Calls of active or inactive are those of the source. No cut-off for these calls is given here.
Columns and labels:
[1] = molecular target: T1, Tyrosinase (Agaricus bisporus) (UniProt O42713); test: Activity of mushroom tyrosinase assessed as specific activity pkat per mg of protein
T1 sequence (whole entry): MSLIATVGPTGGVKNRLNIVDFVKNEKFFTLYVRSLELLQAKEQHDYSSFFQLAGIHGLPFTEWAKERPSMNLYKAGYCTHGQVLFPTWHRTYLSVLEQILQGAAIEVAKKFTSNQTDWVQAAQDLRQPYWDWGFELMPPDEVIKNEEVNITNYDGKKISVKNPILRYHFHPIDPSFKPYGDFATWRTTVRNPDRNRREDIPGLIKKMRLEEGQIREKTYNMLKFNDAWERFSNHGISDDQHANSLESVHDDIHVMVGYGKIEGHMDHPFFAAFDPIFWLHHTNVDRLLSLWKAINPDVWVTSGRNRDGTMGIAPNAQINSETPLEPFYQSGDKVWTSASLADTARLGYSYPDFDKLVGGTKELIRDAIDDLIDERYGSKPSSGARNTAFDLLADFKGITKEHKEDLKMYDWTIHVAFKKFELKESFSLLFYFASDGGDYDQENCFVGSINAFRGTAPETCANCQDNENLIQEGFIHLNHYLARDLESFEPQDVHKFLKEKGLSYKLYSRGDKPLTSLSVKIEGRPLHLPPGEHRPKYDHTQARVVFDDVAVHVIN

Eschscholzia californica [2] = test: Elicitor activity in Eschscholzia californica Cham. assessed as elicitation of chelirubine formation at 300 uM; type: functional, organism-based
Eschscholzia californica [3] = test: Elicitor activity in Eschscholzia californica Cham. assessed as elicitation of chelirubine formation at 30 uM; type: functional, organism-based
Eschscholzia californica [4] = test: Elicitor activity in Eschscholzia californica Cham. assessed as elicitation of chelirubine formation; type: functional, organism-based

For `N[C@@H](Cc1ccc(O)cc1)C(=O)O`, the Activity [1] was 15600.
`CC/C=C\CC1C(=O)CCC1CC(=O)N[C@@H](Cc1ccc(O)cc1)C(=O)O` (mixture of isomers) showed an Activity [1] of 2320.
In the case of `CC/C=C\CC1C(=O)CCC1CC(=O)NCCc1ccc(O)c(O)c1` (racemic), the Activity (Eschscholzia californica [2]) is reported as “Active” and the Activity (Eschscholzia californica [3]) is reported as “Active”.
With `CC/C=C\CC1C(=O)CCC1CC(=O)NCCc1ccc(O)cc1` (racemic) the Activity [1] was 5630, the Activity (Eschscholzia californica [2]) was “Active” and the Activity (Eschscholzia californica [3]) was “Active”.
In the case of `CC/C=C\CC1C(=O)CCC1CC(=O)O` (racemic), the Activity (Eschscholzia californica [4]) is reported as “Active”.

From ChEMBL document CHEMBL1141801, “N-(jasmonoyl)tyrosine-derived compounds from flowers of broad beans (Vicia faba)” (J Nat Prod, 2005)
